Data taken from ChEMBL document CHEMBL1123697, “Heteroatom-activated beta-lactam antibiotics: considerations of differences in the biological activity of [[3(S)-(acylamino)-2-oxo-1-azetidinyl]oxy]acetic acids (oxamazins) and the corresponding sulfur analogues (thiamazins)” (J Med Chem, 1987).

Columns and labels:
Format in all cases: ADME
Details in all cases: buffer
[1] = Half life at pH 10
[2] = Pseudo first order rate constant for the alkaline hydrolysis of beta-lactams (35 degree Celsius) was determined at pH 10
[3] = Half life at pH 11
[4] = Pseudo first order rate constant for the alkaline hydrolysis of beta-lactams (35 degree Celsius) was determined at pH 11

| Structure (SMILES) | half-life [1] [min] | k [2] [h⁻¹] | half-life [3] [min] | k [4] [h⁻¹] |
| --- | --- | --- | --- | --- |
| C[C@H]1[C@H](NC(=O)Cc2ccccc2)C(=O)N1OCC(=O)O | 132 | 0.31 | – | – |
| C[C@@H]1NC(=O)[C@H]1NC(=O)OCc1ccccc1 | – | – | 1440 | 0.029 |
| C[C@H]1[C@H](NC(=O)/C(=N\OC(C)(C)C(=O)O)c2csc(N)n2)C(=O)N1S(=O)(=O)O [AZTREONAM] | – | 0.4 | – | – |
| C[C@H]1[C@H](NC(=O)Cc2ccccc2)C(=O)N1SCC(=O)[O-].[K+] | 57 | 0.73 | – | – |
